MIC data for 7 compounds are collected here from USRE40086E1, “Method for treating bacterial infection with novel 7-substituted-9-substituted amino 6-demethyl-6-deoxytetracyclines” (Wyeth Holdings Corporation, priority 1991, dated 2008).

For orientation: MIC means the lowest concentration that inhibits growth of the organism. Low values mean a more susceptible organism, high ones a less susceptible organism.

Holding throughout (experiment): MIC, agar dilution
Holding throughout (assay type): cell-based
A general note: In agar dilution the substance is mixed into plates at graded concentrations.

In experiment [1] the test system is S. aureus UBMS 90-1 (tetM). The following applies: S. aureus UBMS 90-1 (tetM).
Experiment [2] concerns E. coli UBMS 89-2 (Sensitive). As to conditions: E. coli UBMS 89-2 (Sensitive).
In another experiment the test system is E. faecalis ATCC 29212. The following applies: E. faecalis ATCC 29212.
Experiment [3] deals with S. aureus IVES 1983 (meth. resistant). The following applies: S. aureus IVES 1983 (meth. resistant).
Experiment [4] concerns S. aureus UBMS 88-7 (tetK). As to conditions: S. aureus UBMS 88-7 (tetK).
For experiment [5], the system named is S. aureus UBMS 88-4 (Sensitive). The following applies: S. aureus UBMS 88-4 (Sensitive).
The test system of experiment [6] is S. aureus ATCC 29213 (Sensitive). The following applies: S. aureus ATCC 29213 (Sensitive).
The subject of experiment [7] is S. aureus IVES 2943 (meth. resistant). The following applies: S. aureus IVES 2943 (meth. resistant).
A further experiment deals with E. coli UBMS 88-1 (tetB). The following applies: E. coli UBMS 88-1 (tetB).
Experiment [8] concerns S. aureus UBMS 90-2 (tetM). The following applies: S. aureus UBMS 90-2 (tetM).
Another experiment relates to E. coli ATCC 25922. The following applies: E. coli ATCC 25922.
Experiment [9] deals with S. aureus UBMS 88-5 (tetM). The following applies: S. aureus UBMS 88-5 (tetM).
Experiment [10] concerns S. aureus UBMS 90-3 (Sensitive). The following applies: S. aureus UBMS 90-3 (Sensitive).
The subject of the next experiment is E. coli UBMS 89-1 (tetM). The following applies: E. coli UBMS 89-1 (tetM).
The subject of experiment [11] is S. aureus Smith (Sensitive). The following applies: S. aureus Smith (Sensitive).
Experiment [12] has as its system S. haemolyticus AVAH 88-3. As to conditions: S. haemolyticus AVAH 88-3.
For a further experiment, the system named is E. faecalis 12201. The following applies: E. faecalis 12201.
In experiment [13] the test system is E. coli UBMS 88-2 (Sensitive). The following applies: E. coli UBMS 88-2 (Sensitive).

Converted amounts (≈) assume the structure as drawn. Bounds are passed on as bounds.

Regarding `CN(C)c1cc(NC(=O)c2cccs2)c(O)c2c1CC1CC3C(N(C)C)C(O)=C(C(N)=O)C(=O)C3(O)C(O)=C1C2=O` (stereo not drawn) [Z, 7-(Dimethylamino)-9-[(2-thienylcarbonyl)amino]-6-demethyl-6-deoxytetracycline], the MIC in [1] is 4 µg/mL (≈ 6.87 µM); in [2], greater than 32 µg/mL; against E. faecalis ATCC 29212, 8 µg/mL (≈ 13.7 µM); in experiment [3] it was 32 µg/mL (≈ 54.9 µM); in experiment [4] it was 32 µg/mL (≈ 54.9 µM); in experiment [5] it was 8 µg/mL (≈ 13.7 µM). Moreover, the MIC in experiment [6] is 0.5 µg/mL (≈ 0.858 µM); in experiment [7], 32 µg/mL (≈ 54.9 µM); with E. coli UBMS 88-1 (tetB) it was greater than 32 µg/mL; in [8] it was 4 µg/mL (≈ 6.87 µM); against E. coli ATCC 25922, 32 µg/mL (≈ 54.9 µM); in experiment [9], 8 µg/mL (≈ 13.7 µM). Further, the MIC is 2 µg/mL (≈ 3.43 µM) in experiment [10]; greater than 32 µg/mL against E. coli UBMS 89-1 (tetM); 2 µg/mL (≈ 3.43 µM) in experiment [11]; 8 µg/mL (≈ 13.7 µM) in experiment [12]; 8 µg/mL (≈ 13.7 µM) against E. faecalis 12201; greater than 32 µg/mL in experiment [13].
With `CN(C)c1ccc(C(=O)Nc2cc(N(C)C)c3c(c2O)C(=O)C2=C(O)[C@]4(O)C(=O)C(C(N)=O)=C(O)[C@@H](N(C)C)[C@@H]4C[C@@H]2C3)cc1` [W, 7-(Dimethylamino)-9-[[(4-dimethylamino)benzoyl)amino)-6-demethyl-6-deoxytetracycline], the MIC in experiment [1] was 16 µg/mL (≈ 25.8 µM); in [2], greater than 32 µg/mL; in the experiment with E. faecalis ATCC 29212 it was 8 µg/mL (≈ 12.9 µM); in [3], 8 µg/mL (≈ 12.9 µM); in experiment [4], 16 µg/mL (≈ 25.8 µM); in experiment [5] it was 8 µg/mL (≈ 12.9 µM). In addition, the MIC in [6] was 2 µg/mL (≈ 3.23 µM); in experiment [7], 8 µg/mL (≈ 12.9 µM); against E. coli UBMS 88-1 (tetB), greater than 32 µg/mL; in [8], 8 µg/mL (≈ 12.9 µM); in the experiment with E. coli ATCC 25922, greater than 32 µg/mL; in experiment [9] it was 32 µg/mL (≈ 51.6 µM). Also, the MIC was 8 µg/mL (≈ 12.9 µM) in experiment [10]; greater than 32 µg/mL with E. coli UBMS 89-1 (tetM); 4 µg/mL (≈ 6.45 µM) in [11]; 16 µg/mL (≈ 25.8 µM) in experiment [12]; 16 µg/mL (≈ 25.8 µM) with E. faecalis 12201; greater than 32 µg/mL in [13].
With `CN(C)c1cc(NC(=O)c2cccc(C(F)(F)F)c2)c(O)c2c1CC1CC3C(N(C)C)C(O)=C(C(N)=O)C(=O)C3(O)C(O)=C1C2=O` (stereo not drawn) [U, 7-(Dimethylamino)-9-[[3-(trifluoromethyl)benzoyl)amino]-6-demethyl-6-deoxytetracycline], the MIC was 1 µg/mL (≈ 1.55 µM) in experiment [1]; “≧32 μg/ml” in [2]; 1 µg/mL (≈ 1.55 µM) in the experiment on E. faecalis ATCC 29212; 1 µg/mL (≈ 1.55 µM) in experiment [3]; 1 µg/mL (≈ 1.55 µM) in experiment [4]; 0.5 µg/mL (≈ 0.776 µM) in experiment [5]. Besides, the MIC in experiment [6] was 0.5 µg/mL (≈ 0.776 µM); in experiment [7] it was 1 µg/mL (≈ 1.55 µM); in the experiment on E. coli UBMS 88-1 (tetB), greater than 32 µg/mL; in experiment [8], 1 µg/mL (≈ 1.55 µM); with E. coli ATCC 25922 it was “≧32 μg/ml”; in [9], 1 µg/mL (≈ 1.55 µM). The MIC in [10] is 0.5 µg/mL (≈ 0.776 µM); with E. coli UBMS 89-1 (tetM) it was greater than 32 µg/mL; in experiment [11] it was 1 µg/mL (≈ 1.55 µM); in experiment [12], 1 µg/mL (≈ 1.55 µM); against E. faecalis 12201, 1 µg/mL (≈ 1.55 µM); in experiment [13] it was greater than 32 µg/mL.
In the case of `CCN(CC)c1cc(NC(C)=O)c(O)c2c1CC1CC3C(N(C)C)C(O)=C(C(N)=O)C(=O)C3(O)C(O)=C1C2=O` (stereo not drawn) [F, 9-(Acetylamino)-7-(diethylamino)-6-demethyl-6-deoxytetracycline], the MIC in [1] stood at 2 µg/mL (≈ 3.69 µM); in experiment [2], 32 µg/mL (≈ 59 µM); against E. faecalis ATCC 29212 it was 0.25 µg/mL (≈ 0.461 µM); in experiment [3], 4 µg/mL (≈ 7.37 µM); in [4] it was 2 µg/mL (≈ 3.69 µM); in experiment [5], 0.25 µg/mL (≈ 0.461 µM). Further, the MIC entry in experiment [6] was “≦0.015 μg/ml”; in experiment [7], 2 µg/mL (≈ 3.69 µM); in the experiment on E. coli UBMS 88-1 (tetB), greater than 32 µg/mL; in experiment [8], 0.5 µg/mL (≈ 0.922 µM); against E. coli ATCC 25922, 4 µg/mL (≈ 7.37 µM); in experiment [9], 0.5 µg/mL (≈ 0.922 µM). The MIC in experiment [10] came out at 0.12 µg/mL (≈ 0.221 µM); with E. coli UBMS 89-1 (tetM), 4 µg/mL (≈ 7.37 µM); in experiment [11], 0.12 µg/mL (≈ 0.221 µM); in [12], 2 µg/mL (≈ 3.69 µM); against E. faecalis 12201, 4 µg/mL (≈ 7.37 µM); in [13] it was 32 µg/mL (≈ 59 µM).
As to `CC(=O)Nc1cc(I)c2c(c1O)C(=O)C1=C(O)C3(O)C(=O)C(C(N)=O)=C(O)C(N(C)C)C3CC1C2.O=S(=O)(O)O` (stereo not drawn) [H, 9-(Acetylamino)-7-iodo-6-demethyl-6-deoxytetracycline sulfate], the MIC in experiment [1] turned out to be 1 µg/mL; in [2], 16 µg/mL; against E. faecalis ATCC 29212, 0.25 µg/mL; in [3] it was 32 µg/mL; in [4] it was 16 µg/mL; in experiment [5] it was 0.25 µg/mL. The MIC is 0.22 µg/mL in [6]; 32 µg/mL in experiment [7]; 0.5 µg/mL in experiment [8]; 16 µg/mL against E. coli ATCC 25922; 1 µg/mL in experiment [9]; 0.12 µg/mL in experiment [10]. For the same compound, the MIC with E. coli UBMS 89-1 (tetM) was 128 µg/mL; in experiment [11], 0.12 µg/mL; in experiment [12], 2 µg/mL; against E. faecalis 12201, 2 µg/mL; in [13] it was greater than 128 µg/mL.
As to `CN(C)C1C(O)=C(C(N)=O)C(=O)C2(O)C(O)=C3C(=O)c4c(O)c(NC=O)cc(I)c4CC3CC12.O=S(=O)(O)O` (stereo not drawn) [G, 9-(Formylamino)-7-iodo-6-demethyl-6-deoxytetracycline sulfate], the MIC is 4 µg/mL in experiment [1]; 1 µg/mL in [2]; 0.25 µg/mL with E. faecalis ATCC 29212; 32 µg/mL in [3]; 16 µg/mL in [4]; less than 0.015 µg/mL in experiment [5]. The MIC was 32 µg/mL in experiment [7]; greater than 32 µg/mL against E. coli UBMS 88-1 (tetB); 0.5 µg/mL in [8]; 0.5 µg/mL in the experiment on E. coli ATCC 25922; 1 µg/mL in experiment [9]; 0.03 µg/mL in experiment [10]. The MIC against E. coli UBMS 89-1 (tetM) worked out at 1 µg/mL; in [11], 0.03 µg/mL; in experiment [12], 0.06 µg/mL; against E. faecalis 12201, 16 µg/mL; in experiment [13], 1 µg/mL.
`CN(C)c1cc(NC(=O)C(F)(F)F)c(O)c2c1C[C@H]1C[C@H]3[C@H](N(C)C)C(O)=C(C(N)=O)C(=O)[C@@]3(O)C(O)=C1C2=O.O=S(=O)(O)O` [I, 7-(Dimethylamino)-9-((trifluoroacetyl)amino]-g-demethyl-6-deoxytetracycline sulfate]: the MIC in experiment [1] is 16 µg/mL; in experiment [2], 32 µg/mL; in the experiment on E. faecalis ATCC 29212 it was 8 µg/mL; in [3], 32 µg/mL; in experiment [4] it was 16 µg/mL; in experiment [5], 8 µg/mL. Further, the MIC in experiment [6] is 1 µg/mL; in the experiment with E. coli UBMS 88-1 (tetB), greater than 32 µg/mL; in experiment [8] it was 16 µg/mL; against E. coli ATCC 25922 it was 32 µg/mL; in [9], 16 µg/mL; in [10], 4 µg/mL. Besides, the MIC amounted to 32 µg/mL in the experiment on E. coli UBMS 89-1 (tetM); 8 µg/mL in [11]; 0.5 µg/mL in experiment [12]; 16 µg/mL against E. faecalis 12201; 32 µg/mL in experiment [13].
